According to patent US20160333006A1, “ARYL LACTA KINASE INHIBITORS” (Bristol-Myers Squibb Company, priority 2014, published 2016):

Columns and labels:
GST-Xa-hAAK1 = molecular target: T1, GST-Xa-hAAK1 (Homo sapiens, UniProt Q2M2I8); experiment: AAK1 kinase assay; type: biochemical; conditions: ATP 22 μM
T1 construct: made in house
Procedure: The assays were performed in U-bottom 384-well plates. […] The reactions were initiated by the combination of bacterially expressed, GST-Xa-hAAK1 with substrates and test compounds. The reactions were incubated at room temperature for 3 hours and terminated by adding 60 μl of 35 mM EDTA buffer to each sample. The reactions were analyzed on the Caliper LabChip 3000 (Caliper, Hopkinton, Mass.) by electrophoretic separation of the fluorescent substrate and phosphorylated product. […] Compounds were dissolved at 10 mM in dimethylsulfoxide (DMSO) and evaluated at eleven concentrations. IC50 values were derived by non-linear regression analysis.

[1] = molecular target: T2, AAK1 (full length human) in HEK293F cells (Homo sapiens, UniProt Q2M2I8); experiment: HEK281 cell-based assay (phospho-mu2 Western blot in transfected HEK293F cells); conditions: 3 hours
T2 construct: fused on or other part: HA tag (AAK1/HA in pIRES vector)
T2 sequence (Q2M2I8 1-822 limits assumed): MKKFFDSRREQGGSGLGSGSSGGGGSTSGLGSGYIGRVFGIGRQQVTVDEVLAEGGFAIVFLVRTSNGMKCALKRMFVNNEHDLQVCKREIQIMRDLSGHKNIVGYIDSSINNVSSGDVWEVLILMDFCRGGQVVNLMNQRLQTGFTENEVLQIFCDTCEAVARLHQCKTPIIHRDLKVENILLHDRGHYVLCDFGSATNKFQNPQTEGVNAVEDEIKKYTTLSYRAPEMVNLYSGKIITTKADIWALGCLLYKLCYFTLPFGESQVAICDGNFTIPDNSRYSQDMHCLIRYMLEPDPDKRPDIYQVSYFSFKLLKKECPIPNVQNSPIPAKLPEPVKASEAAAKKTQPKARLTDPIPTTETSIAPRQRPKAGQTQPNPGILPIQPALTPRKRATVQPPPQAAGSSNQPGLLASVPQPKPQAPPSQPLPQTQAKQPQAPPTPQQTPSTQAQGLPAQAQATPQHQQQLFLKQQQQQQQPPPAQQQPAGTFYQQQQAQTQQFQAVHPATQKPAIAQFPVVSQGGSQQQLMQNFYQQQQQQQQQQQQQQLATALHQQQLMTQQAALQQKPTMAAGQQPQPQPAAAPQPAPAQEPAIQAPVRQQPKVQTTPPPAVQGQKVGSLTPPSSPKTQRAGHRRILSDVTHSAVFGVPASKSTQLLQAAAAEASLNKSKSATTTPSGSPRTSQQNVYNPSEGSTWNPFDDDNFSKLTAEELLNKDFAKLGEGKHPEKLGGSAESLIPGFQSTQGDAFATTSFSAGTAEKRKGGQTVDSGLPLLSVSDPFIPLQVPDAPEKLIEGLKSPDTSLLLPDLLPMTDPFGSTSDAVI
Procedure: On day one, cells were plated on a 10 cm dish so that they are ˜80% confluent at time oftransfection. Roughly 12 million cells were in a 10 cm dish at time of transfection. […] The DNA was comprised of a mixture (per 10 cm dish) containing 3 ug AAK1/HA/pIRES (full length human, NCBI accession no. NP_055726.2), 45 μg Flag/AP2MI/pcDNA (full length human), and 1.5 ml OPTI-MEM. The Lipofectamine 2000 is made up of a mixture (per 10 cm dish) containing 144 μl Lipofectamine 2000 and 1.5 ml OPTI-MEM. Each mixture was transferred to individual 15 ml tubes and incubated at RT for 5 minutes, and then the two mixes were combined and incubated at RT for 20 minutes. Growth media was then aspirated from each 10 cm plate and replaced with 10 ml of DMEM+10% FBS (no GPS). Finally, 3 ml DNA/Lipofectamine mix was added to each 10 cm dish and mix gently followed by incubate of plate overnight at 37° C. and 5% CO2.
On day three, compounds were diluted in 100% DMSO at 1000× final concentration, followed by 3-fold serial dilutions for a total of 5 concentrations tested. Four compounds were tested per 10 cm dish. One ul of each compound dilution was then pipetted into a deep-well, 96-well plate, followed by addition of 500 μl DMEM+0.5% FBS into each well for a 2× final concentration of each compound. Cells were resuspended in a 10 cm dish by simple pipetting (HEK293 cells come off the plate that easy at this point) and then transferred to a 50 ml conical tube and pelleted by centrifugation at 1000 rpm for 5 min. Cell pellets were then resuspended in 2.75 ml DMEM+0.5% FBS per 10 cm dish and 100 μl of cell suspension transferred into each well of 96-well TC plate. Finally, 100 μl of 2× compound diluted in DMEM+0.5% FBS was then added into wells containing cell suspension for a 1× final concentration. Plates were then incubated at 37° C. and 5% CO2 for 3 hours followed by transferring of cell suspensions from each well into 12-tube PCR strips. The PCR strips were spun in a tip rack at 1000 rpm for 5 minutes to pellet cells and media was then removed by pipetting without disturbing the cell pellet.
Five ul of 10× NuPage Sample Reducing Agent (with 50 mM DTT) was to each sample followed by heat denaturing at 70 C for 10 min on PCR machine. […] For controls, 2 ng of phospho-mu2 or 20 ng mu2/Flag proteins were loaded in the last well of each gel. After SDS-PAGE, samples on each gel were transferred to PVDF membrane using an iBlot and membranes were blocked for one hour in TBST+5% milk, followed by wash 3× for 5-10 min with TBST.
Finally, the camera was set up to take a picture every 30 seconds for 10 minutes and the best image saved for each blot with no saturated signal (when the signal is saturated, the bands will be highlighted red). A volume analysis on each band was performed to obtain density values. Percent inhibition was calculated for each sample by first normalizing to total Mu2 expression levels and then comparing to 0% and 100% controls. IC50 values were then calculated using Excel fitting software.

[2] = phospho-mu2, given as IC50 range
[3] = phospho-mu2 normalized to total Mu2

T1 sequence (Q2M2I8 whole entry): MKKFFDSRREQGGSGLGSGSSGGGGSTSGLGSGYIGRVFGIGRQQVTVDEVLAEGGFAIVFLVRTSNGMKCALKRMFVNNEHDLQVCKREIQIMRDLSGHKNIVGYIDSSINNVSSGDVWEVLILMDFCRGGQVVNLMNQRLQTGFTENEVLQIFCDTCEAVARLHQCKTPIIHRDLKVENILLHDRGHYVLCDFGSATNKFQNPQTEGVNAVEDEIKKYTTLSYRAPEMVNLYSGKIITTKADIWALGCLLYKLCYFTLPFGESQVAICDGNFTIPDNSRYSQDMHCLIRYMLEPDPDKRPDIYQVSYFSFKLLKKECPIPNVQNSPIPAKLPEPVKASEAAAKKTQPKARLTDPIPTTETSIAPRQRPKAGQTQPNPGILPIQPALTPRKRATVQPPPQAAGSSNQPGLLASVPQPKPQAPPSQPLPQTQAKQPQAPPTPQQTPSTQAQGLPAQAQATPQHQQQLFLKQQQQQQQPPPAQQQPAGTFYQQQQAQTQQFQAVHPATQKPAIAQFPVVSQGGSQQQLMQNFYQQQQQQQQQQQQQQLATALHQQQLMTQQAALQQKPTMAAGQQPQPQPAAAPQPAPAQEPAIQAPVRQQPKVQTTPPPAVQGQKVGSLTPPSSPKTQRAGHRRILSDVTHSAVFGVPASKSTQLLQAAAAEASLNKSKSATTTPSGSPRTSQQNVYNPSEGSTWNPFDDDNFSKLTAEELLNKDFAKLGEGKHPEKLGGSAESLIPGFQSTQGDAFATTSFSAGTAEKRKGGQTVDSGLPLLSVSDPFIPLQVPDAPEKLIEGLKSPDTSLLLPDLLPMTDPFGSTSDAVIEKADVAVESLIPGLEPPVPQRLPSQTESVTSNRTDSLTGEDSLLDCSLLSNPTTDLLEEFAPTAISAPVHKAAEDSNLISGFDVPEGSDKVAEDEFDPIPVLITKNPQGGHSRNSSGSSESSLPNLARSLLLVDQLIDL

SMILES	IC50 (GST-Xa-hAAK1; given as IC50 range) [nM]	IC50 [1, 2] [nM]	IC50 (GST-Xa-hAAK1; 3 hours at room temperature) [nM]	IC50 [1, 3] [nM]
Cn1c(=O)c2cnccc2c2cc(Cl)c(OCC(N)CC(F)(F)F)cc21 (stereo not drawn) [Example 141, 8-(2-amino-4,4,4-trifluorobutoxy)-9-chloro-6-methylbenzo[c][2,7]naphthyridin-5(6H)-one]	1 to 10	10 to 100		
CC(C)C[C@H](N)COc1cc2[nH]c(=O)c3cnccc3c2cc1Cl [Example 142, (S)-8-((2-amino-4-methylpentyl)oxy)-9-chlorobenzo[c][2,7]naphthyridin-5(6H)-one]	< 1	1 to 10		
Cc1nccc2c1c(=O)n(C)c1cc(OCC(N)CC(F)(F)F)c(Br)cc21 (single isomer, unassigned) [Example 139, 8-(2-amino-4,4,4-trifluorobutoxy)-9-bromo-4,6-dimethylbenzo[c][2,7]naphthyridin-5(6H)-one]	< 1	1 to 10		
Cc1cc2c(cc1OC[C@@H](N)CC(C)C)[nH]c(=O)c1cnccc12 [Example 109, (S)-8-((2-amino-4-methylpentyl)oxy)-9-methylbenzo[c][2,7]naphthyridin-5(6H)-one]	1 to 10	1 to 10		
Cc1nccc2c1c(=O)n(C)c1cc(OCC(N)CC(F)(F)F)c(Br)cc21 (single isomer, unassigned) [Example 138, 8-(2-amino-4,4,4-trifluorobutoxy)-9-bromo-4,6-dimethylbenzo[c][2,7]naphthyridin-5(6H)-one]	1 to 10	10 to 100		
Cn1c(=O)c2cnccc2c2cc(C#N)c(OCC(N)CCC(F)(F)F)cc21 (stereo not drawn) [Example 126, 8-((2-amino-5,5,5-trifluoropentyl)oxy)-6-methyl-5-oxo-5,6-dihydrobenzo[c][2,7]naphthyridine-9-carbonitrile]			16	56
Cc1nccc2c1c(=O)n(C)c1cc(OC[C@H](N)CC(C)C)c(Br)cc21 [Example 133, (R)-8-((2-amino-4-methylpentyl)oxy)-9-bromo-4,6-dimethylbenzo[c][2,7]naphthyridin-5(6H)-one]			0.4	2.3
Cn1c(=O)c2cnccc2c2cc(Br)c(OCC(N)CC(F)(F)F)cc21 (stereo not drawn) [Example 140, 8-(2-amino-4,4,4-trifluorobutoxy)-9-bromo-6-methylbenzo[c][2,7]naphthyridin-5(6H)-one]	1 to 10	10 to 100		
CC(C)C[C@H](N)COc1cc2c(cc1C(F)F)c1ccncc1c(=O)n2C [Example 121, (S)-8-((2-amino-4-methylpentyl)oxy)-9-(difluoromethyl)-6-methylbenzo[c][2,7]naphthyridin-5(6H)-one]	1 to 10	1 to 10		
Cn1c(=O)c2c(N)nccc2c2ccc(OCC(N)CCC(F)(F)F)cc21 (stereo not drawn) [Example 118, 4-amino-8-((2-amino-5,5,5-trifluoropentyl)oxy)-6-methylbenzo[c][2,7]naphthyridin-5(6H)-one]	1 to 10	10 to 100		
Cn1c(=O)c2c(N)nccc2c2ccc(OCC(N)CCC(F)(F)F)cc21 (stereo not drawn) [Example 119, 4-amino-8-((2-amino-5,5,5-trifluoropentyl)oxy)-6-methylbenzo[c][2,7]naphthyridin-5(6H)-one]		1 to 10		
Cc1nccc2c1c(=O)n(CCO)c1cc(OC[C@@H](N)CC(C)C)c(Br)cc21 [Example 143, (S)-8-((2-amino-4-methylpentyl)oxy)-9-bromo-6-(2-hydroxyethyl)-4-methylbenzo[c][2,7]naphthyridin-5(6H)-one]	1 to 10	1 to 10		
CC(C)NCC(O)COc1cc2c(cc1Br)c1ccncc1c(=O)n2C (stereo not drawn) [Example 148, 9-bromo-8-(2-hydroxy-3-(isopropylamino)propoxy)-6-methylbenzo[c][2,7]naphthyridin-5(6H)-one]	100 to 2000	100 to 2000		
Cn1c(=O)c2c(N)nccc2c2ccc(OCC(N)CCC(F)(F)F)cc21 (stereo not drawn) [Example 120, 4-amino-8-((2-amino-5,5,5-trifluropentyl)oxy)-6-methylbenzo[c][2,7]naphthyridin-5(6H)-one]		1 to 10		
Cn1c(=O)c2cnccc2c2cc(Cl)c(OCC(N)CCC(F)(F)F)cc21 (stereo not drawn) [Example 116, 8-((2-amino-5,5,5-trifluoropentyl)oxy)-9-chloro-6-methylbenzo[c][2,7]naphthyridin-5(6H)-one]	10 to 100	10 to 100		
Cc1nccc2c1c(=O)n(C)c1cc(OCC(O)COC(C)C)ccc21 (stereo not drawn) [Example 153, 8-(2-hydroxy-3-isopropoxypropoxy)-4,6-dimethylbenzo[c][2,7]naphthyridin-5(6H)-one]	100 to 2000			
COCCn1c(=O)c2c(C)nccc2c2cc(Cl)c(OC[C@@H](N)CC(C)C)cc21 [Example 79, (S)-8-((2-amino-4-methylpentyl)oxy)-9-chloro-6-(2-methoxyethyl)-4-methylbenzo[c][2,7]naphthyridin-5(6H)-one]	1 to 10			
CC(C)Cc1cc2c3ccncc3c(=O)n(C)c2cc1OC[C@@H](N)CC(C)C [Example 110, (S)-8-((2-amino-4-methylpentyl)oxy)-9-isobutyl-6-methylbenzo[c][2,7]naphthyridin-5(6H)-one]	10 to 100			
Cn1c(=O)c2cnccc2c2ccc(OCC(N)CC(F)(F)F)cc21 (single isomer, unassigned) [Example 136, 8-(2-amino-4,4,4-trifluorobutoxy)-6-methylbenzo[c][2,7]naphthyridin-5(6H)-one]	1 to 10			
Cc1nccc2c1c(=O)n(C)c1cc(OC[C@@H](N)CC(C)C)c(C(C)C)cc21 [Example 129, (S)-8-((2-amino-4-methylpentyl)oxy)-9-isopropyl-4,6-dimethylbenzo[c][2,7]naphthyridin-5(6H)-one]	1 to 10	1 to 10		
Cn1c(=O)c2cnccc2c2cc(Cl)c(OCC(N)CCC(F)(F)F)cc21 (stereo not drawn) [Example 117, 8-((2-amino-5,5,5-trifluoropentyl)oxy)-9-chloro-6-methylbenzo[c][2,7]naphthyridin-5(6H)-one]	1 to 10	1 to 10		
CC(C)CC(C)COc1ccc2c3ccncc3c(=O)n(C)c2c1 (stereo not drawn) [Example 150, 8-((2,4-dimethylpentyl)oxy)-6-methylbenzo[c][2,7]naphthyridin-5(6H)-one]	10 to 100			
Cc1nccc2c1c(=O)n(C)c1cc(OCC(N)CC(C)C(F)(F)F)ccc21 (single isomer, unassigned) [Example 88]	1 to 10			
CN[C@H](COc1cc2c(cc1C#N)c1ccnc(C)c1c(=O)n2C)CC(C)C [Example 65, (S)-4,6-dimethyl-8-(4-methyl-2-(methylamino)pentyloxy)-5-oxo-5,6-dihydrobenzo[c][2,7]naphthyridine-9-carbonitrile]	< 1			
COCc1cc2c3ccnc(C)c3c(=O)n(C)c2cc1OC[C@@H](N)CC(C)C [Example 104, (S)-8-(2-amino-4-methylpentyloxy)-9-(methoxymethyl)-4,6-dimethylbenzo[c][2,7]naphthyridin-5(6H)-one]	10 to 100			
CC(C)C[C@H](N)COc1c(Cl)cc2c3ccncc3c(=O)n(C)c2c1Cl [Example 10, (S)-8-((2-amino-4-methylpentyl)oxy)-7,9-dichloro-6-methylbenzo[c][2,7]naphthyridin-5(6H) one]	10 to 100			
Cc1nccc2c1c(=O)n(C)c1cc(OC[C@@H](N)CC(C)C)c(C(C)C)cc21 [Example 130, (S)-8-((2-amino-4-methylpentyl)oxy)-9-isopropyl-4,6-dimethylbenzo[c][2,7]naphthyridin-5(6H)-one]	10 to 100			
